Assay results from US20190307692A1, “NANOLIPOPROTEIN PARTICLES AND RELATED COMPOSITIONS METHODS AND SYSTEMS FOR IMPROVED DRUG LOADING” (Lawrence Livermore National Security, LLC, priority 2016, published 2019).
Where a name gives a salt, the structure may show the parent alone. Blank lines part the entries; values can stand above or below the compound they belong to.

Legend:
[1] = pH 5, 7 or 9; cited from earlier work
[2] = Drug (paclitaxel) loading into NLPs, quantified by reverse phase HPLC after SEC purification; assay type: physicochemical; details: for amount of paclitaxel loaded into NLPs (mass of drug over total mass of particle components): NLPs prepared with the named lysophospholipid at 50 mol % content
Protocol: For NLP assemblies using DOPC as the membrane forming lipid with apoE422k, the total lipid-to-apoE422K molar ratio was 80:1. Briefly, lipids were either prepared or obtained in chloroform and aliquoted into glass vials. Chloroform was then removed using a stream of N2 under agitation to form a thin lipid film. Lipids were solubilized in PBS buffer (137 mM sodium chloride, 2.7 mM potassium chloride, 10 mM phosphate buffer, pH 7.4) using 30 mM sodium cholate. After addition of the apoE422k (150 μM in final assembly volume), samples were incubated at 23.8° C. for at least 2 hours.
Assemblies were dialyzed overnight against PBS to remove cholate. Samples were subsequently analyzed and purified by SEC (size exclusion chromatography) (Superdex 200, 10/300 GL column, GE Healthcare, Piscataway, N.J.) in PBS buffer (0.5 mL/min flow rate). The exclusion limit of the column was determined with Blue Dextran 2000. SEC fractions (500 μl) were collected every 60 s. SEC fractions containing homogeneous NLP populations were concentrated using 50 kDa MWCO spin concentrators (Sartorius). The apoE422k concentration was determined using NanoDrop (Thermo Scientific). The concentrated NLP samples were then stored at 4° C. until further use.
The solution was then spun down to remove any precipitate, and then the supernatant was purified by SEC (GE HiTrap desalting column) in PBS buffer (0.5 ml/min flow rate). The collected fractions containing NLP were then analyzed by reverse phase HPLC to quantify each component of the NLP.
The ability of the two NLP populations to accommodate the drug of interest, paclitaxel, was then assessed. Following addition of paclitaxel to the two solutions, the NLP solutions were re-purified to remove free paclitaxel. The solutions were then analyzed by reverse phase HPLC to assess the amount of paclitaxel that was incorporated into the particles.
Further experiments were carried out to assess the relationship between lysophospholipid content and paclitaxel loading. NLPs were prepared with initial lysophospholipid contents (lyso 14:0) between 0 and 70 mole percent (i.e. 0 mol %-70 mol %). After paclitaxel addition and subsequent purification, the composition of these particles was again analyzed using reverse phase HPLC.

[3] = compared with lyso 14:0, 16:0 and 18:0; cited from earlier work

incorporation in NLPs ([2]; regardless of whether a lysophospholipid is used as part of the drug loading process): does not incorporate to a useful degree
SMILES: COc1cccc2c1C(=O)c1c(O)c3c(c(O)c1C2=O)C[C@@](O)(C(=O)CO)C[C@@H]3O[C@H]1C[C@H](N)[C@H](O)[C@H](C)O1 [doxorubicin hydrochloride]
LogKow [1]: 3.5

SMILES: CCCCCCCCCCCCCC(=O)OC[C@@H](O)COP(=O)([O-])OCC[N+](C)(C)C [lyso 14:0, 1-tetradecanoyl-sn-glycero-3-phosphocholine]
amount of paclitaxel loaded into NLPs (mass of drug over total mass of particle components) [2]: over 20%

SMILES: CCCCCCCC/C=C\CCCCCCCC(=O)OC[C@@H](O)COP(=O)([O-])OCC[N+](C)(C)C [lyso 18:1, 1-(9Z-octadecenoyl)-sn-glycero-3-phosphocholine]
aqueous solubility / CMC (in words) [3]: lowest solubility
amount of paclitaxel loaded into NLPs (mass of drug over total mass of particle components) [2]: least amount

paclitaxel content in NLPs (mass of drug over total mass of particle components) ([2]; 10-20 mol % initial lysophospholipid (lyso 14:0)): approximately 5 % by mass
paclitaxel loading in NLPs (mass of drug over total mass of particle components) ([2]; 30-60 mol % initial lysophospholipid (lyso 14:0)): 10-20%
measured quantity of paclitaxel in NLPs ([2]; 30 mol % lysophospholipid group): about 0.23 micrograms
paclitaxel loading in NLPs (mass of drug over total mass of particle components) ([2]; 70 mol % initial lysophospholipid (lyso 14:0)): > 30 % by mass
measured quantity of paclitaxel in NLPs ([2]; 70 mol % lysophospholipid group): about 0.23 micrograms
paclitaxel accepted by NLPs from second SEC peak versus larger particles from peak 1 ([2]; NLPs with 40 mol % initial lysophospholipid (lyso 14:0), two SEC populations): substantially more
paclitaxel content in NLPs (mass of drug over total mass of particle components) ([2]; NLPs without lysophospholipids (0 mol % lyso 14:0), DOPC/apoE422k): 1-2 % by mass of the particle
SMILES: CC(=O)O[C@H]1C(=O)[C@@]2(C)[C@H]([C@H](OC(=O)c3ccccc3)[C@]3(O)C[C@H](OC(=O)[C@H](O)[C@@H](NC(=O)c4ccccc4)c4ccccc4)C(C)=C1C3(C)C)[C@]1(OC(C)=O)CO[C@@H]1C[C@@H]2O [paclitaxel]
incorporation into NLP ([2]; when aided by lysophospholipid): capable of being incorporated into NLP to a useful mass percent
